# Experimental data reported in patent US20190328869A1, “IMMUNOTHERAPEUTIC PRODUCT AND MDSC MODULATOR COMBINATION THERAPY” (Transgene SA, priority 2016, published 2019).
# How the values were obtained:
# HBV RNA (AAV2/8-HBV) = assay: Serum HBV RNA by RT-qPCR in HBV-persistent mice; type: in vivo, C57BL/6J mice; conditions: sildenafil only 5 mg/kg/day (group b), over the experiment
# Protocol: The graph illustrates the median level of HBV RNA determined in the serum of 6 mice per group (groups a, b, e and f) treated with sildenafil at 5 mg/kg/day (group b) or with AdTG18201 alone (group e) or with a combination of AdTG18201 and sildenafil (at 5 mg/kg/day, group f). The control group a is untreated. The Y-axis indicates the median HBV RNA level (log 10 copies/mL) and the X-axis the time (number of days post-AAV2/8-HBV injection). Time points of AdTG18201 immunization (D36, D43, D50) are shown by a dashed line and the period of sildenafil treatment (from D31 to 59) is shown by a horizontal bar on the X axis.
# HBV DNA/RNA extraction was performed using the MagMax-96 viral RNA isolation kit from Ambion according to manufacturer's protocol. Briefly, 50 μL of serum was added to 20 μL of reconstituted RNA/DNA binding beads. Plate was shaken for 1 minute on a thermomixer (Eppendorf Thermomixer compact) at 600-700 rpm. Then, 130 μL of lysis/binding solution, spiked with qPCR kit internal extraction control DNA, were added before additional shaking for 10 minutes. Beads were captured on a magnetic stand for 3 minutes and after 4 washes the supernatant was discarded. Residual washing solution was removed by drying the beads (shaking of the plate for 3 minutes at 900 rpm). Then, 50 μL of elution buffer was added (shaking of the plate for 3 minutes at 900 rpm). […]
# HBV DNA (AAV2/8-HBV) = assay: Serum HBV DNA (viral load) by qPCR in HBV-persistent mice; type: in vivo, C57BL/6J mice; conditions: sildenafil only 5, 20 or 80 mg/kg/day (groups b to d), over the experiment
# Protocol: Graph A illustrates the median level of HBsAg determined in the serum of groups of 10 mice (groups a to h) treated with sildenafil at 5 mg/kg/day (group b), at 20 mg/kg/day (group c), or at 80 mg/kg/day (group d) alone, or with AdTG18201 (group e) alone or with a combination of AdTG18201 and sildenafil (at 5, 20, or 80 mg/kg/day, groups f, g and h, respectively). The control group a is untreated. The Y-axis indicates the median HBsAg level (ng/mL) for each group and the X-axis the time (number of days post-AAV2/8-HBV injection). Graph B illustrates the median level of HBV DNA determined in the serum of the same groups of mice by PCR. […]
# The HBV persistent mice used in the study were described by Dion et al. (2013, J Virol, 87(10):5554-63). […] This allows the analysis of HBV-specific viral parameters (HBsAg, HBeAg, HBcAg and viremia) as well as immunological read-outs (ICS, ELISpot or humoral immune responses). […]
# HBV DNA copy number was determined in samples using the PrimerDesign™ Genesig Advanced Kit for Hepatitis B (ref. Path-HBV, PrimerDesign) and the 7500 real time system from Applied Biosystems. Data were analyzed using the 7500 System SDS software v2.0.6. […]
# The Quantitect Multiplex PCR kit (ref. 204545, Qiagen) was used to carry out the qPCR reactions. […]
# The limit of quantification (LOQ) was 100 DNA copies per reaction and the limit of detection (LOD) was 10 copies per reaction. […]
compound,measurement,setting,value
"CCCc1nn(C)c2c(=O)nc(-c3cc(S(=O)(=O)N4CCN(C)CC4)ccc3OCC)[nH]c12 [sildenafil, 1-[[3-(4,7-dihydro-1-methyl-7-oxo-3-propyl-1H-pyrazolo[4,3-d]pyrimidin-5-yl)-4-ethoxyphenyl]sulfonyl]-4-methylpiperazine]",median level of viral RNA,HBV RNA (AAV2/8-HBV),around 4.5 log 10 copies/mL serum
same,median level of viral DNA,HBV DNA (AAV2/8-HBV),around 10^5 copies/mL serum
